This passage reports IC50 results from patent US9321776B2, “Isochromene derivatives as phoshoinositide 3-kinases inhibitors” (CHIESI FARMACEUTICI S.p.A., priority 2013, dated 2016).

Counter-ions that a name gives are not always drawn.

Experiment in all cases: PI3K enzyme inhibitory activity in the cell free assay (ADP-Glo Kinase Assay)
Common to all, as to format: biochemical
A general note: In ADP-Glo the light output rises with the ADP produced.

One experiment addresses T1, PI3Kγ (Homo sapiens, UniProt P48736).
T1 construct: purchased Millipore Ltd (Billerica, Mass.)
The settings on record: human recombinant PI3Kγ, ATP 30 μM; read-out: PI3K gamma inhibition.

The next experiment concerns the target T2, PI3Kδ (Homo sapiens, UniProt O00329).
T2 construct: purchased Millipore Ltd (Billerica, Mass.)
T2 sequence (O00329 1-1044): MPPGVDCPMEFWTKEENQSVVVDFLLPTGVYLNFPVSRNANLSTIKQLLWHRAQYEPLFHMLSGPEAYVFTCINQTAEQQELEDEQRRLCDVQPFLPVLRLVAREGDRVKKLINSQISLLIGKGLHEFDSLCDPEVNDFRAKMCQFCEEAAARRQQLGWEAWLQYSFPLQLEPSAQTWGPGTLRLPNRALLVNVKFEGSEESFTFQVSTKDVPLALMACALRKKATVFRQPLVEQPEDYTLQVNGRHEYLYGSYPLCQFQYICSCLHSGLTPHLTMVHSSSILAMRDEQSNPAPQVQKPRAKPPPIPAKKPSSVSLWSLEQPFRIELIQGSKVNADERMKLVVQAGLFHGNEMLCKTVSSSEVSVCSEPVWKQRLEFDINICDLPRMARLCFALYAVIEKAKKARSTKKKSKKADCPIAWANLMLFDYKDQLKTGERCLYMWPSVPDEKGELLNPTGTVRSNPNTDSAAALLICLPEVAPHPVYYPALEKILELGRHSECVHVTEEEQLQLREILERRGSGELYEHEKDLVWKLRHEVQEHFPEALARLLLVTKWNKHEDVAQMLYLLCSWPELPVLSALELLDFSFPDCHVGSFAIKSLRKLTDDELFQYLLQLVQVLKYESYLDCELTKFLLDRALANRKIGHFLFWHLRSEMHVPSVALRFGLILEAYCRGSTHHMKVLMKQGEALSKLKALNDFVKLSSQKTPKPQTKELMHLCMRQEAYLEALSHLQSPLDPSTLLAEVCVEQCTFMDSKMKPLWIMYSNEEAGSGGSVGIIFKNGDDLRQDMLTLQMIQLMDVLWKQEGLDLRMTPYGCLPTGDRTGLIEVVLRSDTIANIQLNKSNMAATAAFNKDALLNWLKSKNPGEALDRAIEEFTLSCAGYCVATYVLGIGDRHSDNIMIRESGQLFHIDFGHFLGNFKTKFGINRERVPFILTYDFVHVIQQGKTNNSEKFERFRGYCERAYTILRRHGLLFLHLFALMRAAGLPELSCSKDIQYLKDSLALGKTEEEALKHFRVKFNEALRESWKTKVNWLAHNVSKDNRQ
To be noted: human recombinant PI3Kδ, ATP 80 μM; read-out: PI3K delta inhibition.

The target in a further experiment is T3, PI3Kβ (Homo sapiens, UniProt P42338).
T3 construct: purchased Millipore Ltd (Billerica, Mass.)
T3 sequence (P42338 whole entry): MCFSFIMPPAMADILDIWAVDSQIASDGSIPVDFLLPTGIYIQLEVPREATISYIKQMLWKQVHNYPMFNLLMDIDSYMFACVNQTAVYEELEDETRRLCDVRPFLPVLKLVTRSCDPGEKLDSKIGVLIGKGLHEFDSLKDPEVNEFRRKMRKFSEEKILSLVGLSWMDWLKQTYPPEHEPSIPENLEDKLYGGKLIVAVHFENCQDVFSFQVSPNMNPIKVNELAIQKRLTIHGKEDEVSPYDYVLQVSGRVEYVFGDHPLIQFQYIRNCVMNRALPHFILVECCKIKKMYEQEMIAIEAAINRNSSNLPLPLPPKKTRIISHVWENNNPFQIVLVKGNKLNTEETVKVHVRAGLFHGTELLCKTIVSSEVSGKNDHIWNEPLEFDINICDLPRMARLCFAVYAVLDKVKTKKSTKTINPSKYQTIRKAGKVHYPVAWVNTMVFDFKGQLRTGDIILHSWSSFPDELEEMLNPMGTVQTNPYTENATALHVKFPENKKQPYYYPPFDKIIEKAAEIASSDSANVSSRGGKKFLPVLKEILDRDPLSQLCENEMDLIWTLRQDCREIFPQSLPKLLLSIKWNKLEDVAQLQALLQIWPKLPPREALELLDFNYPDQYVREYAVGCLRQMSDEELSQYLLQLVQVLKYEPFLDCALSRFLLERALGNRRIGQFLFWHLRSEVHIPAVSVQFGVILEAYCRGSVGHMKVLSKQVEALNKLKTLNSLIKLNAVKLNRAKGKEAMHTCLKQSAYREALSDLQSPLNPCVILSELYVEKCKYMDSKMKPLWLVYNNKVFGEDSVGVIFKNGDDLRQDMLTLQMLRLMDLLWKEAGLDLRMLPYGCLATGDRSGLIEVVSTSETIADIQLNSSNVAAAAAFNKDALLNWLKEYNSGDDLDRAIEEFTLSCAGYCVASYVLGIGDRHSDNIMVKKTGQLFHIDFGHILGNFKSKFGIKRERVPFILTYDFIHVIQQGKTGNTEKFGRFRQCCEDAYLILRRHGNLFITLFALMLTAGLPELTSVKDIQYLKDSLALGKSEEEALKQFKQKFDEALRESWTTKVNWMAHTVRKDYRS
The settings on record: human recombinant PI3Kβ, ATP 100 μM; read-out: PI3K beta inhibition.

In the next experiment the target is T4, PI3Kα (Homo sapiens, UniProt P42336).
T4 construct: purchased Millipore Ltd (Billerica, Mass.)
T4 sequence (P42336 whole entry): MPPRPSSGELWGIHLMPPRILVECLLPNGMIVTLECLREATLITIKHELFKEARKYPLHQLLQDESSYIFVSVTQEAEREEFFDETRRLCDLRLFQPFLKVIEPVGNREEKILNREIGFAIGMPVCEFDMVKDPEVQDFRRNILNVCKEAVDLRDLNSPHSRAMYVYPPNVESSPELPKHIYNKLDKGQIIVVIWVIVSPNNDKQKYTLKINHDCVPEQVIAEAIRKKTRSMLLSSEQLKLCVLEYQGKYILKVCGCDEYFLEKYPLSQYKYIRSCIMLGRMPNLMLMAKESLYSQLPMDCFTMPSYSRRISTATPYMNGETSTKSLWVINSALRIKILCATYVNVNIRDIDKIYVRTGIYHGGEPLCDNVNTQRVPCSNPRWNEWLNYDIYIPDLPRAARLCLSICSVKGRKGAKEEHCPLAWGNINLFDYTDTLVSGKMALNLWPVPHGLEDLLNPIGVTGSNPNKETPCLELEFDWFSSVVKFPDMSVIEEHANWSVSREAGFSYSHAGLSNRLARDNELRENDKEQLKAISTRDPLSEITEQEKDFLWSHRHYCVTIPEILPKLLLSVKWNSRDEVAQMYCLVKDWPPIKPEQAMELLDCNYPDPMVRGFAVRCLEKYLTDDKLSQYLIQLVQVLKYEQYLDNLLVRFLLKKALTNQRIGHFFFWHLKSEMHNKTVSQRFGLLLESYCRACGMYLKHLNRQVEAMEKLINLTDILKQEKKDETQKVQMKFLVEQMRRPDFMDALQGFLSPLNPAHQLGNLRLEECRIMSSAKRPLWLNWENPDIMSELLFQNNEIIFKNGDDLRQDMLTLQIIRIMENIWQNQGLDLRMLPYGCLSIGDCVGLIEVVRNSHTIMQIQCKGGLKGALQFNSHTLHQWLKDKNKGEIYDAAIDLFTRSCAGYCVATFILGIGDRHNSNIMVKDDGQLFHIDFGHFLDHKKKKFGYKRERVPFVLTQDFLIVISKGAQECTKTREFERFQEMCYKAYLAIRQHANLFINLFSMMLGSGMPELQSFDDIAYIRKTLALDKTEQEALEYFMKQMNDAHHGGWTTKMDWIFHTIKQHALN
The settings on record: human recombinant PI3Kα, ATP 50 μM; read-out: PI3K alpha inhibition.

T1 sequence (P48736 whole entry): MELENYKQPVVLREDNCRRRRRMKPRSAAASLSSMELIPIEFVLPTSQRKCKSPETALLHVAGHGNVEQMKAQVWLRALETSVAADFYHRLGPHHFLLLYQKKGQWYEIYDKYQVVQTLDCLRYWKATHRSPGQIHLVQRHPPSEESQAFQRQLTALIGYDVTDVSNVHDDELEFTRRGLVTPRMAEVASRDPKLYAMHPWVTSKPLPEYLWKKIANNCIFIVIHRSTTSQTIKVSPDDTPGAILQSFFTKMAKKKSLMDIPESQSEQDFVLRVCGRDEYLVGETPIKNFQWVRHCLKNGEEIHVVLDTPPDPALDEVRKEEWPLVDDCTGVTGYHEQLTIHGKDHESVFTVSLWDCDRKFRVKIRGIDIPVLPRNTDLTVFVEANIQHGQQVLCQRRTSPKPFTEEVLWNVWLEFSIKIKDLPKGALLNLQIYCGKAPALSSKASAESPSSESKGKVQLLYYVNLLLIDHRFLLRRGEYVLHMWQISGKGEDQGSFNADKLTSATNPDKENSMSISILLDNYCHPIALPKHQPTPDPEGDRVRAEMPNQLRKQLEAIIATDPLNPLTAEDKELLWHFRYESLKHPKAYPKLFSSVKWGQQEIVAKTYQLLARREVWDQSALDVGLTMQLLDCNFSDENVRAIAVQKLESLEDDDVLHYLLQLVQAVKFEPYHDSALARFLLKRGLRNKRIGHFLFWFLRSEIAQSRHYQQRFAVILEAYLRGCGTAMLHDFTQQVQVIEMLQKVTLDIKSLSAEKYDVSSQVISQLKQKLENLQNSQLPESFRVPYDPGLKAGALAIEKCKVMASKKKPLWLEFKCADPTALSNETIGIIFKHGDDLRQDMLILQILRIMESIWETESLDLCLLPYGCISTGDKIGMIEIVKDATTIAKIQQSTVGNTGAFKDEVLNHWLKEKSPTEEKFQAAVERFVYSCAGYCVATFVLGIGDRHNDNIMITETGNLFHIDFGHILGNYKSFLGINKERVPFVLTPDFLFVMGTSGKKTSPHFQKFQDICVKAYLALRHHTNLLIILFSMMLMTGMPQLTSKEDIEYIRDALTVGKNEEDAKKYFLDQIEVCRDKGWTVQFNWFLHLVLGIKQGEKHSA

For the compound `CC(c1oc(=O)c2ccccc2c1C1=CCN(C(=O)CN(C)C)CC1)n1nc(-c2cc(O)cc(F)c2)c2c(N)ncnc21` (stereo not drawn) [Example 147, 3-(1-(4-amino-3-(3-fluoro-5-hydroxyphenyl)-1H-pyrazolo[3,4-d]pyrimidin-1-yl)ethyl)-4-(1-(2-(dimethylamino)acetyl)-1,2,3,6-tetrahydropyridin-4-yl)-1H-isochromen-1-one formate], the IC50 at PI3Kγ is 10 to 1000 nM; at PI3Kδ it was below 10 nM; on PI3Kβ, 10 to 1000 nM; on PI3Kα, 10 to 1000 nM.

For the compound `CC(c1oc(=O)c2ccccc2c1C1=CCN(C(=O)C2CCN(C)CC2)CC1)n1nc(-c2cc(O)cc(F)c2)c2c(N)ncnc21` (stereo not drawn) [Example 148, 3-(1-(4-amino-3-(3-fluoro-5-hydroxyphenyl)-1H-pyrazolo[3,4-d]pyrimidin-1-yl)ethyl)-4-(1-(1-methylpiperidine-4-carbonyl)-1,2,3,6-tetrahydropyridin-4-yl)-1H-isochromen-1-one formate], the IC50 is 10 to 1000 nM on PI3Kγ, below 10 nM on PI3Kδ, 10 to 1000 nM on PI3Kβ and above 1000 nM at PI3Kα.

Take `CC(c1oc(=O)c2ccccc2c1C1=CCN(C(=O)C2CN(C)C2)CC1)n1nc(-c2cc(O)cc(F)c2)c2c(N)ncnc21` (stereo not drawn) [Example 151, 3-(1-(4-amino-3-(3-fluoro-5-hydroxyphenyl)-1H-pyrazolo[3,4-d]pyrimidin-1-yl)ethyl)-4-(1-(1-methylazetidine-3-carbonyl)-1,2,3,6-tetrahydropyridin-4-yl)-1H-isochromen-1-one formate]: the IC50 at PI3Kγ was 10 to 1000 nM; on PI3Kδ, 10 to 1000 nM; on PI3Kβ, 10 to 1000 nM; at PI3Kα, above 1000 nM.

As for `CC(c1oc(=O)c2ccccc2c1C1=CCNCC1)n1nc(-c2cc(O)cc(Cl)c2)c2c(N)ncnc21` (stereo not drawn) [Example 152, 3-(1-(4-amino-3-(3-chloro-5-hydroxyphenyl)-1H-pyrazolo[3,4-d]pyrimidin-1-yl)ethyl)-4-(1,2,3,6-tetrahydropyridin-4-yl)-1H-isochromen-1-one formate], the IC50 on PI3Kγ was 10 to 1000 nM; on PI3Kδ it was below 10 nM; at PI3Kβ, 10 to 1000 nM; on PI3Kα, 10 to 1000 nM.

As to `CC(c1oc(=O)c2ccccc2c1C1=CCNCC1)n1nc(-c2cc(O)cc(C(F)(F)F)c2)c2c(N)ncnc21` (stereo not drawn) [Example 153, 3-(1-(4-amino-3-(3-hydroxy-5-(trifluoromethyl)phenyl)-1H-pyrazolo[3,4-d]pyrimidin-1-yl)ethyl)-4-(1,2,3,6-tetrahydropyridin-4-yl)-1H-isochromen-1-one formate], the IC50 at PI3Kγ was above 1000 nM; on PI3Kδ, below 10 nM; at PI3Kβ, 10 to 1000 nM; at PI3Kα, above 1000 nM.

As to `CC(c1oc(=O)c2ccccc2c1C1=CCN(C)CC1)n1nc(-c2cc(O)cc(Cl)c2)c2c(N)ncnc21` (stereo not drawn) [Example 154, 3-(1-(4-amino-3-(3-chloro-5-hydroxyphenyl)-1H-pyrazolo[3,4-d]pyrimidin-1-yl)ethyl)-4-(1-methyl-1,2,3,6-tetrahydropyridin-4-yl)-1H-isochromen-1-one formate], the IC50 at PI3Kγ was above 1000 nM; on PI3Kδ, below 10 nM; at PI3Kβ it was 10 to 1000 nM; at PI3Kα, above 1000 nM.

For the compound `CC(c1oc(=O)c2ccccc2c1C1=CCN(C)CC1)n1nc(-c2cc(O)cc(C(F)(F)F)c2)c2c(N)ncnc21` (stereo not drawn) [Example 155, 3-(1-(4-amino-3-(3-hydroxy-5-(trifluoromethyl)phenyl)-1H-pyrazolo[3,4-d]pyrimidin-1-yl)ethyl)-4-(1-methyl-1,2,3,6-tetrahydropyridin-4-yl)-1H-isochromen-1-one formate], the IC50 on PI3Kγ was above 1000 nM; at PI3Kδ, 10 to 1000 nM; at PI3Kβ, 10 to 1000 nM; on PI3Kα it was above 1000 nM.

Consider `CC(c1oc(=O)c2ccccc2c1C1=CCN(C2CNC2)CC1)n1nc(-c2cc(O)cc(F)c2)c2c(N)ncnc21` (stereo not drawn) [Example 156, 3-(1-(4-amino-3-(3-fluoro-5-hydroxyphenyl)-1H-pyrazolo[3,4-d]pyrimidin-1-yl)ethyl)-4-(1-(azetidin-3-yl)-1,2,3,6-tetrahydropyridin-4-yl)-1H-isochromen-1-one dihydrochloride], for which the IC50 is 10 to 1000 nM at PI3Kγ, below 10 nM at PI3Kδ, 10 to 1000 nM at PI3Kβ and above 1000 nM on PI3Kα.

For the compound `CC(c1oc(=O)c2ccccc2c1C1=CCN(C2CN(CC3CC3)C2)CC1)n1nc(-c2cc(O)cc(F)c2)c2c(N)ncnc21` (stereo not drawn) [Example 157, 3-(1-(4-amino-3-(3-fluoro-5-hydroxyphenyl)-1H-pyrazolo[3,4-d]pyrimidin-1-yl)ethyl)-4-(1-(1-(cyclopropylmethyl)azetidin-3-yl)-1,2,3,6-tetrahydropyridin-4-yl)-1H-isochromen-1-one dihydrochloride], the IC50 is 10 to 1000 nM on PI3Kγ, below 10 nM on PI3Kδ, 10 to 1000 nM at PI3Kβ and above 1000 nM on PI3Kα.

`CC(c1oc(=O)c2ccccc2c1-c1ccccc1)n1nc(-c2cnc(C(F)(F)F)c(O)c2)c2c(N)ncnc21` (stereo not drawn) [Example 161, 3-(1-(4-amino-3-(5-hydroxy-6-(trifluoromethyl)pyridin-3-yl)-1H-pyrazolo[3,4-d]pyrimidin-1-yl)ethyl)-4-phenyl-1H-isochromen-1-one]: the IC50 at PI3Kγ was above 1000 nM; at PI3Kδ, below 10 nM; on PI3Kβ, above 1000 nM; at PI3Kα, above 1000 nM.

For the compound `CC(c1oc(=O)c2ccc(Cl)cc2c1-c1ccccc1)n1nc(-c2cc(O)cc(F)c2)c2c(N)ncnc21` (stereo not drawn) [Example 164, 3-(1-(4-amino-3-(3-fluoro-5-hydroxyphenyl)-1H-pyrazolo[3,4-d]pyrimidin-1-yl)ethyl)-6-chloro-4-phenyl-1H-isochromen-1-one], the IC50 at PI3Kγ was 10 to 1000 nM; on PI3Kδ, below 10 nM; at PI3Kβ it was 10 to 1000 nM; at PI3Kα, above 1000 nM.

Consider `CC(c1oc(=O)c2ccc(F)cc2c1-c1ccccc1)n1nc(-c2cc(O)cc(F)c2)c2c(N)ncnc21` (stereo not drawn) [Example 165, 3-(1-(4-amino-3-(3-fluoro-5-hydroxyphenyl)-1H-pyrazolo[3,4-d]pyrimidin-1-yl)ethyl)-6-fluoro-4-phenyl-1H-isochromen-1-one], for which the IC50 at PI3Kγ was 10 to 1000 nM; on PI3Kδ, below 10 nM; on PI3Kβ, 10 to 1000 nM; at PI3Kα it was above 1000 nM.

As for `CC(c1oc(=O)c2ccccc2c1C1=CCCN(Cc2ccccc2)C1)n1nc(-c2cc(O)cc(F)c2)c2c(N)ncnc21` (stereo not drawn) [Example 169, 3-(1-(4-amino-3-(3-fluoro-5-hydroxyphenyl)-1H-pyrazolo[3,4-d]pyrimidin-1-yl)ethyl)-4-(1-benzyl-1,2,5,6-tetrahydropyridin-3-yl)-1H-isochromen-1-one hydrochloride], the IC50 on PI3Kγ is 10 to 1000 nM; on PI3Kδ, below 10 nM; at PI3Kβ, 10 to 1000 nM; on PI3Kα it was above 1000 nM.

Consider `CC(c1oc(=O)c2ccccc2c1-c1ccccn1)n1nc(-c2cc(O)cc(F)c2)c2c(N)ncnc21` (stereo not drawn) [Example 170, 3-(1-(4-amino-3-(3-fluoro-5-hydroxyphenyl)-1H-pyrazolo[3,4-d]pyrimidin-1-yl)ethyl)-4-(pyridin-2-yl)-1H-isochromen-1-one hydrochloride], for which the IC50 at PI3Kγ was 10 to 1000 nM; at PI3Kδ it was below 10 nM; at PI3Kβ, 10 to 1000 nM; at PI3Kα, 10 to 1000 nM.

As for `CC(c1oc(=O)c2ccccc2c1C1=CCCN(C2CCN(C)CC2)C1)n1nc(-c2cc(O)cc(F)c2)c2c(N)ncnc21` (stereo not drawn) [Example 172, 3-(1-(4-amino-3-(3-fluoro-5-hydroxyphenyl)-1H-pyrazolo[3,4-d]pyrimidin-1-yl)ethyl)-4-(1-(1-methylpiperidin-4-yl)-1,2,5,6-tetrahydropyridin-3-yl)-1H-isochromen-1-one dihydrochloride], the IC50 at PI3Kγ, on PI3Kδ, on PI3Kβ and on PI3Kα was 10 to 1000 nM each time.
